This note sets out measurements from US4962224A, “N-naphthoylglycines as aldose reductase inhibitors” (American Home Products Corporation, priority 1989, dated 1990).

The target of one experiment is T1, aldose reductase (Bos taurus, UniProt P16116).
T1 construct: preparation of the enzyme from bovine lens; from tissue; host or cells: bovine lens
Briefly: aldose reductase inhibiting effects in vitro (Table I, IN VITRO). The experiment is classed as biochemical, bovine (lens). The conditions noted are these: for inhibition at 0.04 µM / inhibition at 0.1 µM / inhibition at 1 µM / inhibition at 10 µM: read-out: % Inhibition IN VITRO. The source says:
In the present case the procedure of Hayman and Kinoshita was modified in that the final chromatography step was omitted in the preparation of the enzyme from bovine lens. The results are tabulated in Table I under the heading IN VITRO.

For a further experiment, the system named is dulcitol accumulation. Briefly: lowering of dulcitol (galactitol) accumulation in tissues of galactosemic rats (Table I, IN VIVO). On the set-up: species or system rat (Sprague-Dawley). The conditions noted are these: galactosemic rats, 4 days; for % Lowering dulcitol accumulation IN VIVO, D: diaphragm; for % Lowering dulcitol accumulation IN VIVO, L: lens. The source says: Such experiments are exemplified hereinbelow after the listing of the following general comments pertaining to these experiments:
(a) Four or more groups of six male rats, […], Sprague-Dawley strain, were used. The first group, the control group, was fed a mixture of laboratory chow (rodent Laboratory Chow, Purina) and […] at 20% (w/w %) concentration. […] The test compound was either admixed to the diet or administered by gavage. In experiments involving compound administration in the diet, the average dose administered was calculated from the actual food intake of the animals in each group. The concentration of galactose in the diet of the treated groups was the same as that for the untreated galactosemic group.
(b) After four days, the animals were killed by decapitation. The eyeballs were removed and punctured with a razor blade; the freed lenses were rolled gently on filter paper and weighed. The sciatic nerves were dissected as completely as possible and weighed. Both tissues when frozen can be kept up to two weeks before being analyzed for galactitol.
Only two minor reagent changes were made: (a) the rinsing mixture was an aqueous 5% (w/v) trichloroacetic acid solution and (b) the stock solution was prepared by dissolving 25 mg of dulcitol in 100 mL of an aqueous trichloroacetic acid solution. [N.B.: For each experiment the average value found in the tissue from rats fed the glucose diet was subtracted from the individual values found in the corresponding tissue in galactose-fed rats to obtain the amount of polyol accumulated.]
The figures under L, N, and D represent the percentage decrease of galactitol accumulation in the tissues of the lens, sciatic nerve, and diaphragm, respectively, for treated rats as compared to untreated rats.

Values joined by “and” are separate entries in the source; they are usually repeats but may differ in a detail not shown here. Identical values can stand only once. Like-named read-outs stand apart in the source and are kept apart here.

In the case of `COc1ccc2c(C(=S)N(C)CC(=O)O)c(OCc3ccccc3)ccc2c1C(F)(F)F`, on aldose reductase (4 × 10^-8 M), the inhibition (as a rule, the change of the read-out against control, counted positive when it falls) at 0.04 µM came to 45%. Also, the inhibition at 0.1 µM on aldose reductase (10^-7 M) was 84%. In addition, on aldose reductase, the inhibition at 1 µM amounted to 96% and the inhibition at 10 µM was determined as 96%.
With `CCCOc1ccc2c(C(F)(F)F)c(OC)ccc2c1C(=O)N(C)CC(=O)O` [Example 7, N-[[6-Methoxy-2-propoxy-5-(trifluoromethyl)-1-naphthalenyl]carbonyl]-N-methylglycine], in the experiment on dulcitol accumulation (50 mg/kg), the “% Lowering dulcitol accumulation IN VIVO, D” value is recorded as 57% and the “% Lowering dulcitol accumulation IN VIVO, L” value is “N.S”. Moreover, the inhibition at 0.04 µM at aldose reductase (4 × 10^-8 M) amounted to 21%. Also, on aldose reductase, the inhibition at 0.1 µM amounted to 46%.
For `CCOc1ccc2c(C(F)(F)F)c(OC)ccc2c1C(=O)N(C)CC(=O)O` [Example 6, N-[[2-Ethoxy-6-methoxy-5-(trifluoromethyl)-1-naphthalenyl]carbonyl]-N-methylglycine], in the experiment on dulcitol accumulation (49 mg/kg), the “% Lowering dulcitol accumulation IN VIVO, D” value stood at 57% and the “% Lowering dulcitol accumulation IN VIVO, L” value is recorded as “N.S”. For the same compound, at aldose reductase (4 × 10^-8 M), the inhibition at 0.04 µM amounted to 33%. In addition, on aldose reductase (10^-5 M), the inhibition at 10 µM amounted to 89%. Also, on aldose reductase (10^-6 M), the inhibition at 1 µM worked out at 89%. Further, on aldose reductase, the inhibition at 0.1 µM was 65%.
In the case of `COc1ccc2c(C(=O)N(C)CC(N)=O)c(Cl)ccc2c1C(F)(F)F` [Example 2, [[[2-Chloro-6-methoxy-5-(trifluoromethyl)-1-naphthalenyl]carbonyl]methylamino]acetamide], in the experiment on dulcitol accumulation (24 mg/kg), the “% Lowering dulcitol accumulation IN VIVO, D” value came to 53% and the “% Lowering dulcitol accumulation IN VIVO, L” value is on record as “N.S”. Moreover, the inhibition at 10 µM on aldose reductase (10^-5 M) stood at 9%. For the same compound, the inhibition at 1 µM on aldose reductase (10^-6 M) turned out to be 0%.
For the compound `COc1ccc2c(C(=O)N(C)CC(=O)O)c(F)ccc2c1C(F)(F)F` [F O OH, N-[[2-Fluoro-6-methoxy-5-(trifluoromethyl)-1-naphthalenyl]carbonyl]-N-methylglycine], the “% Lowering dulcitol accumulation IN VIVO, L” value in the experiment with dulcitol accumulation (52 mg/kg) was 15%. Also, in the experiment on dulcitol accumulation (100 mg/kg), the “% Lowering dulcitol accumulation IN VIVO, L” value is reported as 17%. For the same compound, on aldose reductase (4 × 10^-8 M), the inhibition at 0.04 µM was 49%. Also, the inhibition at 0.1 µM on aldose reductase (10^-7 M) was 80%. At aldose reductase, the inhibition at 1 µM amounted to 93% and the inhibition at 10 µM came out at 94%.
Take `COc1ccc2c(C(=O)N(C)CC(=O)O)c(Oc3ccccc3)ccc2c1C(F)(F)F` [Example 8, N-[[6-Methoxy-2-phenoxy-5-(trifluoromethyl)-1-naphthalenyl]carbonyl]-N-methylglycine]: in the experiment with dulcitol accumulation (48 mg/kg), the “% Lowering dulcitol accumulation IN VIVO, D” value was found to be 67% and the “% Lowering dulcitol accumulation IN VIVO, L” value is on record as “N.S”. In addition, the inhibition at 0.04 µM at aldose reductase (4 × 10^-8 M) turned out to be 50%. Moreover, the inhibition at 0.1 µM on aldose reductase (10^-7 M) was 83%. For the same compound, on aldose reductase, the inhibition at 1 µM worked out at 93% and the inhibition at 10 µM stood at 93%.
Take `COc1ccc2c(C(=S)N(C)CC(=O)O)c(F)ccc2c1C(F)(F)F` [F S OH, N-[[2-Fluoro-6-methoxy-5-(trifluoromethyl)-1-naphthalenyl]thioxomethyl]-N-methylglycine]: in the experiment on dulcitol accumulation (4.8 mg/kg), the “% Lowering dulcitol accumulation IN VIVO, D” value is 86% and the “% Lowering dulcitol accumulation IN VIVO, L” value is recorded as “N.S”. Also, in the experiment with dulcitol accumulation (25 mg/kg), the “% Lowering dulcitol accumulation IN VIVO, D” value worked out at 93% and the “% Lowering dulcitol accumulation IN VIVO, L” value came to 23%. The inhibition at 0.04 µM at aldose reductase (4 × 10^-8 M) was 45%. Further, on aldose reductase, the inhibition at 1 µM worked out at 94% and the inhibition at 10 µM turned out to be 99%.
Turning to `COc1ccc2c(C(=O)N(C)CC(N)=O)c(OCC(F)(F)F)ccc2c1C(F)(F)F` [OCH2 CF3 O NH2], in the experiment with dulcitol accumulation (24 mg/kg), the “% Lowering dulcitol accumulation IN VIVO, D” value is “N.S” and the “% Lowering dulcitol accumulation IN VIVO, L” value is on record as “N.S”. In addition, at aldose reductase (10^-5 M), the inhibition at 10 µM was 8%. For the same compound, on aldose reductase (10^-6 M), the inhibition at 1 µM worked out at 1%.
Regarding `COc1ccc2c(C(=S)N(C)CC(=O)O)c(OCC(F)(F)F)ccc2c1C(F)(F)F` [Example 5, N-[[6-Methoxy-2-(2,2,2-trifluoroethoxy)-5-(trifluoromethyl)-1-naphthalenyl]thioxomethyl]-N-methylglycine], in the experiment on dulcitol accumulation (26 mg/kg), the “% Lowering dulcitol accumulation IN VIVO, D” value was 88% and the “% Lowering dulcitol accumulation IN VIVO, L” value is “N.S”. Further, the inhibition at 0.04 µM on aldose reductase (4 × 10^-8 M) came out at 49%. Also, the inhibition at 1 µM on aldose reductase (10^-6 M) amounted to 95%. For the same compound, the inhibition at 0.1 µM at aldose reductase (10^-7 M) stood at 87%. In addition, at aldose reductase, the inhibition at 10 µM turned out to be 99%.
In the case of `COc1ccc2c(C(=O)N(C)CC(=O)O)c(OCC(F)(F)F)ccc2c1C(F)(F)F` [Example 3, N-[[6-Methoxy-2-(2,2,2-trifluoroethoxy)-5-(trifluoromethyl)-1-naphthalenyl]carbonyl]-N-methylglycine], at aldose reductase (4 × 10^-8 M), the inhibition at 0.04 µM turned out to be 32%. For the same compound, the inhibition at 1 µM at aldose reductase (10^-6 M) worked out at 91%. Moreover, on aldose reductase (10^-7 M), the inhibition at 0.1 µM was determined as 67%. Further, the inhibition at 10 µM on aldose reductase stood at 96%.
Turning to `CCCCOc1ccc2c(C(F)(F)F)c(OC)ccc2c1C(=O)N(C)CC(=O)O` [Example 12, N-[[2-Butoxy-6-methoxy-5-(trifluoromethyl)-1-naphthalenyl]carbonyl]-N-methylglycine], in the experiment with dulcitol accumulation (49 mg/kg), the “% Lowering dulcitol accumulation IN VIVO, D” value is listed as 55% and the “% Lowering dulcitol accumulation IN VIVO, L” value is “N.S”. Further, on aldose reductase (4 × 10^-8 M), the inhibition at 0.04 µM was found to be 25%. Also, at aldose reductase (10^-5 M), the inhibition at 10 µM amounted to 92%. The inhibition at 1 µM at aldose reductase (10^-6 M) worked out at 88%. For the same compound, the inhibition at 0.1 µM at aldose reductase (10^-7 M) turned out to be 42%.
Regarding `COc1ccc2c(C(=S)N(C)CC(=O)O)c(Cl)ccc2c1C(F)(F)F` [Example 10, N-[[2-Chloro-6-methoxy-5-(trifluoromethyl)-1-naphthalenyl]thioxomethyl]-N-methylglycine], in the experiment on dulcitol accumulation (24 mg/kg), the “% Lowering dulcitol accumulation IN VIVO, D” value was found to be 90% and the “% Lowering dulcitol accumulation IN VIVO, L” value is “N.S”. Further, at aldose reductase (4 × 10^-8 M), the inhibition at 0.04 µM turned out to be 51%. On aldose reductase (10^-5 M), the inhibition at 10 µM came out at 95%. In addition, the inhibition at 1 µM on aldose reductase (10^-6 M) is 91%. The inhibition at 0.1 µM at aldose reductase (10^-7 M) is 81%.
For the compound `COc1ccc2c(C(=O)N(C)CC(=O)O)c(Cl)ccc2c1C(F)(F)F` [Cl O OH, N-[[2-Chloro-6-methoxy-5-(trifluoromethyl)-1-naphthalenyl]carbonyl]-N-methylglycine], the inhibition at 0.04 µM on aldose reductase (4 × 10^-8 M) turned out to be 36%. Moreover, at aldose reductase (10^-5 M), the inhibition at 10 µM was determined as 90%. For the same compound, the inhibition at 1 µM on aldose reductase (10^-6 M) turned out to be 87%. For the same compound, the inhibition at 0.1 µM on aldose reductase (10^-7 M) was determined as 63%.
As for `COc1ccc2c(C(F)(F)F)c(OC)ccc2c1C(=O)N(C)CC(=O)O` [OCH3 O OH], the “% Lowering dulcitol accumulation IN VIVO, D” value is given as 71% in the experiment with dulcitol accumulation (26 mg/kg) and “N.S” in the experiment on dulcitol accumulation (53 mg/kg). The “% Lowering dulcitol accumulation IN VIVO, L” value with dulcitol accumulation (26 mg/kg) and in the experiment on dulcitol accumulation (53 mg/kg) was “N.S” throughout. Moreover, the inhibition at 0.04 µM on aldose reductase (4 × 10^-8 M) came out at 56%; at aldose reductase, 38%. Besides, the values for the inhibition at 10 µM on aldose reductase (10^-5 M) and on aldose reductase were 95% and 99%, respectively. Besides, the “% Inhibition IN VITRO” value is 92% at aldose reductase (10^-6 M); 91% and 62% on aldose reductase (10^-7 M). Besides, the inhibition at 1 µM on aldose reductase (10^-6 M) stood at 95%.
For `CCOc1ccc2c(C(F)(F)F)c(OC)ccc2c1C(=S)N(C)CC(=O)O` [Example 4, N-[[2-Ethoxy-6-methoxy-5-(trifluoromethyl)-1-naphthalenyl]thioxomethyl]-N-methylglycine], in the experiment on dulcitol accumulation (28 mg/kg), the “% Lowering dulcitol accumulation IN VIVO, D” value worked out at 85% and the “% Lowering dulcitol accumulation IN VIVO, L” value is on record as “N.S”. For the same compound, the inhibition at 0.04 µM at aldose reductase (4 × 10^-8 M) stood at 50%. The inhibition at 1 µM on aldose reductase (10^-6 M) is 95%. For the same compound, on aldose reductase (10^-7 M), the inhibition at 0.1 µM amounted to 87%. Besides, the inhibition at 10 µM on aldose reductase stood at 98%.
On to `CCOC(=O)NC(=O)CN(C)C(=O)c1c(F)ccc2c(C(F)(F)F)c(OC)ccc12` [F O NHCO2 C2 H5, N-[2-[(Ethoxycarbonyl)amino]-2-oxoethyl]-2-fluoro-6-methoxy-N-methyl-5-(trifluoromethyl)-1-naphthalenecarboxamide], for which, in the experiment on dulcitol accumulation (22 mg/kg), the “% Lowering dulcitol accumulation IN VIVO, D” value is recorded as 55% and the “% Lowering dulcitol accumulation IN VIVO, L” value was “N.S”. For the same compound, on aldose reductase (10^-5 M), the inhibition at 10 µM is 8%. On aldose reductase (10^-6 M), the inhibition at 1 µM is 2%.
Consider `COc1ccc2c(C(=S)N(C)CC(N)=O)c(F)ccc2c1C(F)(F)F` [F S NH2, [[[2-Fluoro-6-methoxy-5-(trifluoromethyl)-1-naphthalenyl]thioxomethyl]methylamino]acetamide], for which the inhibition at 10 µM at aldose reductase (10^-5 M) was 2%. Moreover, on aldose reductase (10^-6 M), the inhibition at 1 µM is 6%.
